Several values for one entry are separate records, joined by “and”; a condition that tells them apart may be missing. Equal entries are not always repeated. After the bases stand the sugars from the 5' end (letter, count) and the backbone: PS all phosphorothioate, else s phosphorothioate and o phosphodiester by linkage. Methylation of C is not given here. e = 2'-O-(2-methoxyethyl) (MOE); k = constrained ethyl (cEt); d = 2'-deoxy (DNA)
Target: IRF4
Conditions: ASO

| Sequence | target mRNA inhibition (SK-MEL-28, 4 µM) [%] | target mRNA inhibition (MM.1R, 1 µM) | further results |
| --- | --- | --- | --- |
| AGTACTTGGACAGAAG (sugars k3 d10 k3, PS) | 43 |  |  |
| TCTAACCCTAATCCTA (sugars k3 d10 k3, PS) | 5 |  |  |
| ACTGCTTGAGGTTTTC (sugars kdddddddddkekeke, PS) |  | 21% |  |
| GCTCCCGACACGCGCC (sugars k3 d10 k3, PS) |  | 3% and 19% |  |
| CGTTCTCCCACACCAG (sugars k4 d8 k4, PS) | -1 |  |  |
| GTTGTCTGGCTAGCAG (sugars k4 d8 k4, PS) | 52 |  | target mRNA inhibition (SK-MEL-28, 0.185 µM): 6% and 4%; target mRNA inhibition (SK-MEL-28, 5 µM): 42% and 44% and 53%; target mRNA inhibition (SK-MEL-28, 15 µM): 62% and 65% and 83% |
| CGTGTGCTTGCCAAGC (sugars kkdddddddddkekek, PS) |  | 49% and 43% |  |
| ACGTGTGCTTGCCAAG (sugars kkdddddddddekeke, PS) |  | 59% and 61% |  |
| ACGCGCGGAGGACCTC (sugars k3 d10 k3, PS) | 13 |  |  |
| GTAAAGGAGTGCAGGA (sugars k3 d10 k3, PS) | 9 |  |  |
| ATCAGAAATCACGAGG (sugars k3 d10 k3, PS) | 71 | 6% | target mRNA inhibition (MM.1R, 0.0625 µM): 2%; target mRNA inhibition (MM.1R, 0.074 µM): -9%; target mRNA inhibition (MM.1R, 0.222 µM): -12%; target mRNA inhibition (MM.1R, 0.25 µM): 1%; target mRNA inhibition (MM.1R, 0.666 µM): -4%; target mRNA inhibition (MM.1R, 2 µM): 9%; target mRNA inhibition (MM.1R, 4 µM): 36% |
| TGTGTATTACTCTTAG (sugars kddddddddddkekek, PS) |  | 58% and 56% |  |
| TGTTACCGATGCTTCA (sugars kkdddddddddkekek, PS) |  | 28% and 21% |  |
| TGCAAGATGACTCCAT (sugars k3 d10 k3, PS) | 57 |  |  |
| AGTTGTAAATGAGTCG (sugars kdddddddddkekeke, PS) |  | 47% |  |
| CTTGATAAAGGCTGAA (sugars k2 d9 e3 k2, PS) |  | 10% |  |
| GGTCAACACTTGGAGA (sugars k3 d10 k3, PS) |  | -23% |  |
| GTGTCTAAAGTCCCAT (sugars kkdddddddddekeke, PS) |  | 32% and 23% |  |
| ACGTGTGCTTGCCAAG (sugars k2 d9 e3 k2, PS) |  | 44% and 43% |  |
| ACTATTAAGAACTTGC (sugars k3 d10 k3, PS) | 21 |  |  |

| Sequence | target mRNA inhibition (SK-MEL-28, 4 µM) [%] | target mRNA inhibition (MM.1R, 1 µM) | further results |
| --- | --- | --- | --- |
| ATGGAACCCCAAAATC (sugars k3 d10 k3, PS) | 24 |  |  |
| GACATAAAGGACCCCG (sugars k3 d10 k3, PS) |  | 8% |  |
| CAAAAGTGCCACAACT (sugars k3 d10 k3, PS) | 10 |  |  |
| AGTGTCTAAAGTCCCA (sugars k3 d10 k3, PS) |  | 42% and 58% | target mRNA inhibition (MM.1R, 0.0625 µM): 15%; target mRNA inhibition (MM.1R, 0.25 µM): 34%; target mRNA inhibition (MM.1R, 4 µM): 75% |
| GTCTACATCTACTCCA (sugars k3 d10 k3, PS) | 38 |  |  |
| CTATTATAGAGCATCA (sugars k3 d10 k3, PS) | 55 |  |  |
| GATATTAGAGACTGTA (sugars k3 d10 k3, PS) | 51 |  |  |
| GCCGAGATATAAATAG (sugars k3 d10 k3, PS) | 40 |  |  |
| GTATTACTCTTAGGCA (sugars k3 d10 k3, PS) | 64 | 41% | target mRNA inhibition (MM.1R, 0.0625 µM): 13%; target mRNA inhibition (MM.1R, 0.074 µM): 15%; target mRNA inhibition (MM.1R, 0.222 µM): 7%; target mRNA inhibition (MM.1R, 0.25 µM): 24%; target mRNA inhibition (MM.1R, 0.666 µM): 21%; target mRNA inhibition (MM.1R, 2 µM): 51%; target mRNA inhibition (MM.1R, 4 µM): 69% |
| GAGGTCTTTGGGATTC (sugars k3 d10 k3, PS) | 74 |  |  |
| CCTCAAAGCTGTGAAA (sugars k3 d10 k3, PS) | 20 |  |  |
| TGCCATGGACAAGTTT (sugars k3 d10 k3, PS) |  | -18% |  |
| CTTTCACTAAAGTCAA (sugars k3 d10 k3, PS) | 51 |  |  |
| GTAATAGTAAATATCC (sugars k3 d10 k3, PS) | 61 |  |  |
| TCAGAGCTAGAACATG (sugars k3 d10 k3, PS) | 38 |  |  |
| GTGCACTCGCGCAAAG (sugars k3 d10 k3, PS) |  | -5% |  |
| CAAGGCTACAGGCACG (sugars k3 d10 k3, PS) | 51 |  |  |
| CGGGAGAGCGGAGGCG (sugars k3 d10 k3, PS) | 0 |  |  |
| TGTAACGCACCCGCAG (sugars k3 d10 k3, PS) |  | -4% |  |
| CCGTGAAACAGCAGTT (sugars k3 d10 k3, PS) | 56 |  |  |

Reference: the OligoGym collection
